melting point [°C] | SMILES
58 to 65 | CCCCCCCCCCCCCCCCCCOC(=O)CCc1cc(C(C)(C)C)c(OP2Nc3ccccc3O2)c(C(C)(C)C)c1 (configuration not stated)
127 to 129 | CCOC(=O)c1cc2ccc([Si](C)(C)C)cc2[nH]1
156 to 157 | O=C(O)COc1cccc2c(CNC(=O)COc3ccccc3)coc12
35 to 36 | CCC(=O)OCOC(=O)Oc1ccc([N+](=O)[O-])cc1
97 to 98 | COc1c(C)c(C)c2c(c1C)C(c1ccc(CBr)cc1)C(C)(C)O2 (configuration not stated)
137 | CCCCn1c(=O)c2c(nc(/C=C/c3cc(OC)c(OC)c(OC)c3)n2C)n(CCCC)c1=O
157 to 159 | Cc1nn(C)c(Cl)c1C(=O)Nc1ccccc1
152 to 153 | COc1cc(OC)cc(-c2oc3ncnc(N4CCCCC4)c3c2-c2ccccc2)c1
154 to 155 | COc1ccc2cccc(NC(C)=O)c2c1
125 to 127 | COc1ccc2c(c1)C(=O)c1cccc(OC)c1-2
181 to 183 | Cc1nc(-n2ccc(OCC3CCCO3)cc2=O)sc1C(=O)NCc1ccccc1 (configuration not stated)
109 to 112 | O=C(Cn1ccnc1)c1nccs1
46 to 48 | CC(C)c1ccc2cc(OCCF)ccc2c1
190 to 196 | COc1ccc(CNc2c(OCCC(O)c3ccc(Cl)cc3)n[nH]c(=O)c2Br)cc1OC (configuration not stated)
109 to 111 | CCOC(=O)c1nc2cc(C)c(C)cc2nc1Cl
126 to 128 | O=C1c2cc([N+](=O)[O-])ccc2SC12CC2
58 to 60 | CSC(c1ccc(Cl)cc1)C(C(O)C(C)(C)C)n1cncn1 (configuration not stated)
257 to 259 | CC1(C)Oc2c(cc(Cl)c3oc(C(=O)O)cc(=O)c23)-c2ccc(S(=O)(=O)O)cc21
185 to 188 | CCn1cc(C(=O)O)c(=O)c2cc(F)c(N3CCOC(CN(C)C)C3)c(F)c21 (configuration not stated)
189 to 190 | CS(=O)c1[nH]cc(Cc2ccccc2)c1[N+](=O)[O-] (configuration not stated)
177 to 180 | O=[N+]([O-])c1ccc(S(=O)(=O)c2ccc(Cl)cc2)nc1
87 to 88.5 | COc1ccc(CCNC(=O)CNc2ccc(C)cc2)cc1OC
49 to 51 | COC(=O)C(=O)c1ccc(OCCSc2ccccc2)cc1
159 to 160 | COC(=O)CCC#Cc1ccc(C(=C2CC(C)(C)CC(C)(C)C2)c2ccc(O)cc2)cc1
271 to 273 | Cc1ccc(C)c2c1CCC2=NNC(N)=NC(c1ccccc1)c1ccccc1

melting point [°C] | SMILES
238 | CCCC(=O)Nc1ccc(O)c(-c2ccno2)c1
277 to 290 | O=C(c1ccccc1)c1cnc2c(-c3cc(-c4ccccc4)cs3)cnn2c1O
133 to 136 | CC(C)c1ccc(C(=O)Cc2cccs2)c(C(C)C)c1OS(N)(=O)=O
228 to 233 | CCOc1cc(CN2CCN(c3ccc(C(=O)NC)cc3)CC2)cc2c1OC(C)C(=O)N2 (configuration not stated)
211 to 212 | COc1cc2nc(C(N)=O)sc2cc1OC
> 300 | CC(C)=C1C(=O)Nc2cc3[nH]c(-c4ccncc4)nc3cc21
137 to 139 | CNCC1(c2cccc(C(F)(F)F)c2)CCN(C(=O)CN2CCN(c3cnccn3)CC2)CC1
93 to 95 | COc1ccc(N2CCN(c3c(C)c(C)c4c(c3C)C(NCc3ccccc3)C(C)(C)O4)CC2)cc1 (configuration not stated)
211 to 214 | O=C1CCC(c2cccc(C(F)(F)F)c2)=NN1
76 to 77 | CCCCCCCCCCCCCCC(O)CO (configuration not stated)
118 to 119 | Fc1ccccc1Cn1cnc2c(NC3CC3)nc(C(F)(F)F)nc21
136 to 137 | NC(=S)N1CCSC1c1ccccc1OCCN1CCN(c2cccc(F)c2)CC1 (configuration not stated)
186 | CCN(CC)CCc1cccc(N2C(=O)N(c3ccc(Cl)cc3Cl)Cc3cnc(Nc4ccccc4)nc32)c1
82 to 84 | CN(C)C1CCN(c2nc(N3CCOCC3)c3ncnc(NCCCc4ccccc4)c3n2)CC1
100 to 102 | O=C(c1cccnc1)C(Cc1ccc(F)cc1)c1ccccc1 (configuration not stated)
228 to 232 | CCOC(=O)c1cc(=O)c(O)c(-c2ccc(O)cc2)o1
147 to 149 | CON1C(C)(C)CC(OC(=O)NNC(=O)OC2CC(C)(C)N(OC)C(C)(C)C2)CC1(C)C
214 to 215 | Cc1nc(-c2ccc3ccc(Cn4c(C(C)C)nc5cc[nH]c(=O)c54)cc3c2)no1
74 to 76 | O=[N+]([O-])CS(=O)(=O)c1ccccc1Br
111 to 116 | CCN1C[C@@H](O)[C@H](N(C(=O)c2ccc(Cl)cc2)C2CCCCC2)C1 (relative stereo)
343 to 347 | O=c1[nH]c2cc(C(F)(F)F)c([N+](=O)[O-])c(Cl)c2[nH]c1=O
173 to 175 | COC(=O)Cn1c(C(=O)Nc2nc(-c3cc(OC)c(C)cc3OC)c(CCC3CCCCC3)s2)cc2cc(OC)ccc21
70 to 76 | COc1cc(Oc2cccc(SC(F)(F)F)c2)nc(C(=O)NC(C)C)c1
26 to 29.5 | CCOC(=O)Cn1nnnc1C(=O)OCC
> 250 | CCc1cnc2c(NC(=O)c3c(Cl)cccc3Cl)cccc2c1/C=C/C(N)=O

melting point [°C] | SMILES
130 to 135 | CC(=O)CC(O)c1ccc(-c2ccc(N3C[C@H](Cn4ccnn4)OC3=O)cc2F)cn1 (some centres not stated)
118 to 120 | O=C(Oc1ccccc1)c1ccc(Oc2ccc([N+](=O)[O-])cc2)cc1O
> 300 | O=C(Nc1ccc2ncnc(Nc3cc(Cl)c(Cl)cc3F)c2c1)C(Cl)Cl
181 to 182 | Cc1ccc(C(=S)NCCCCCCCNC(=S)c2ccc(C)cc2)cc1
210 to 212 | Cc1nc2c(N)nc3ccccc3c2n1CCOCCNC(=O)c1ccccc1
71 to 73 | O=C(c1ccccc1)c1ccc(OCCCCNS(=O)(=O)c2ccc(Br)cc2)cc1
124 to 128 | Cc1ccc(Cl)c(N)c1C(N)=O
209 | O=C(Nc1cc(S(=O)(=O)NCCO)sc1Cl)c1cnn2c(C(F)F)cc(-c3ccc(C(F)(F)F)cc3)nc12
106 to 108 | COc1ccc(-c2nc(-c3cccn3CC(=O)OCC(C)C)sc2-c2ccc(OC)cc2)cc1
129 to 131 | COc1ccc(COc2cc(C)nc3c(O)cccc23)cc1OC
110 | Clc1nc(Nc2ccc(OCc3ccccc3)c(Cl)c2)nc(NC2CCCCCC2)n1
153 to 158 | NS(=O)(=O)c1cccc2c1COC2
92 to 95 | Cc1ccc(C(=O)CCN(C)Cc2cccc3ccccc23)cc1
87 to 89.5 | O=C(c1ccccc1)c1ccc(OCCBr)cc1O
88 to 92 | CCCN(CC(O)C(Cc1ccccc1)NC(=O)C(C)CS(C)(=O)=O)S(=O)(=O)c1ccc(OC)cc1 (configuration not stated)
170 to 176 | C=C(c1cncn1Cc1ccccc1)C(c1cc(C)cc(C)c1)c1cc(C)cc(C)c1
186 to 187 | COc1cc2c(=O)n(C(C)CN(C)C)c3c4cc5c(cc4ncc3c2cc1OC)OCO5 (configuration not stated)
227 to 228 | C=C1CC2C(CCC3(C)C2CCC3(OC(C)=O)C(=O)COC(C)=O)C2(C)CCC(=O)C=C12 (configuration not stated)
228 to 230 | OCc1nccc2c1[nH]c1ccccc12
114 to 115 | O=C(CNCCO)Nc1ccccn1
118 to 119 | COC12CC(C)(C)C(O1)C(OC(=O)c1ccc(N)cc1)C=C2C (configuration not stated)
84 to 85 | CCOC(=O)CN1CC[C@@H](O)C1=O
81 to 83 | Cn1c(C(F)(F)F)c(Cl)c(=O)n(-c2c(F)ccc3nc(Cl)sc23)c1=O
177 | CCCCCCN(C(=O)Nc1ccc(C(=O)O)cc1)c1ccc2c(c1)C(C)(C)CCC2(C)C
105 to 106 | COC(=O)[C@H]1[C@H](NC(C)=O)C(=O)O[C@@H]1C

melting point [°C] | SMILES
143 to 145 | CCC(C(=O)O)c1cccc(Oc2ccccc2Cl)c1O (configuration not stated)
159 to 160 | O=c1[nH]c(=O)n(Cc2cccc(OCc3noc(-c4ccc(Cl)cc4)n3)c2)o1
80 to 84 | CC1(CCN)OCCc2c1[nH]c1ccccc21 (configuration not stated)
81 | COC(=O)c1cccc(CCC(=O)O)c1
104 to 106 | Nc1cnccc1Oc1ccc(Cl)cc1
87 | COC(=O)c1cc2cccc(C=O)c2[nH]1
265 to 267 | Cn1cc(-c2ccccc2)c(=O)c(-c2cccc(C(=O)O)c2)c1
220 to 222 | Clc1c2nc3ccccc3c-2[nH]c2ccccc12
264 to 265 | O=C(O)Cc1ccc(-c2cn3cccnc3n2)cc1
64 to 65 | Cc1ccccc1COC1COC(c2ccco2)OC1 (configuration not stated)
107 to 108 | C#CCOc1cc(-c2cc(C)c(C(F)(F)F)n(C)c2=O)c(F)cc1Cl
118 to 120 | Oc1ccc2cc(F)ccc2c1
> 260 | CN(C)CCN1C(=O)c2ccc3[nH]c4cc(O)c(O)cc4c3c2C1=O
250 to 252 | Nc1c(F)c(N2CCC(c3cccnc3)C2)c(F)c2c1c(=O)c(C(=O)O)cn2C1CC1 (configuration not stated)
136 to 137 | O=C(c1ccc([N+](=O)[O-])c([N+](=O)[O-])c1)N1CCOCC1
84 to 86.5 | COC(=O)C[C@H]1C[C@@H](C=Cc2ccccc2)OC(C)(C)O1 (relative stereo)
92 to 96 | CCCCn1nc(C)c(C(=O)O)c1Cc1ccc(-c2ccccc2S(=O)(=O)NC(=O)OC(C)(C)C)cc1
95 to 98 | Cc1nc(/C=C/c2cccc(Cl)c2F)no1
147 to 149 | C=CCSC1(C(F)(F)F)C=NC(=O)Nc2ccc(Cl)cc21 (configuration not stated)
80 to 81 | C=CCOc1ccc(Nc2ccn(-c3ccccc3)n2)cc1
89 to 92 | CC(C)CCn1c(=O)c2c(Cl)cc(Cl)cc2n(Cc2ccccc2)c1=O
57.4 to 59.1 | CCN(CC)CCSc1ccc(/C=C/C(=O)OC)cc1[N+](=O)[O-]
356 to 358 | Cc1c(-c2ccccc2)sc2nc(N)[nH]c(=O)c12

SMILES | melting point [°C]
C[C@H]1[C@@H](O)C(C)(C)C(=O)N1c1ccc(C#N)c(C(F)(F)F)c1 | 120 to 121
NC(=O)N1CCC(Br)C1=O (configuration not stated) | 128 to 129
Cn1nnc(-c2ccc(C#CC3(O)CN4CCC3CC4)cc2)n1 (configuration not stated) | 228 to 230
Nc1ncnc2c1ncn2Cc1nc2cccc(Cl)c2c(=O)n1-c1ccccc1F | 296

— a melting point compilation (Tetko et al.; mined from patent text by program, amines drawn as free bases though some values may be those of a salt)
